Results on 18 compounds are retold here after ChEMBL document CHEMBL1909046, “DrugMatrix in vitro pharmacology data”.

A short description of data set [1]: DRUGMATRIX: ATPase, Na+/K+ enzyme inhibition (substrate: ATP). The format is tissue-based, Sus scrofa, Heart. Particulars: Not Active = under 50% inhibition at 10 µM.
Data set [2] has as its target Sigma non-opioid intracellular receptor 1 (Homo sapiens, UniProt Q99720). The data set is described as follows: DRUGMATRIX: Sigma1 radioligand binding (ligand: [3H] Haloperidol). Particulars: Not Active = under 50% inhibition at 10 µM; for Ki: read-out: Ki. The format is cell membranes, Jurkat, Membrane.
The next data set deals with T1, Substance-K receptor (Homo sapiens, UniProt P21452).
T1 sequence (P21452 whole entry): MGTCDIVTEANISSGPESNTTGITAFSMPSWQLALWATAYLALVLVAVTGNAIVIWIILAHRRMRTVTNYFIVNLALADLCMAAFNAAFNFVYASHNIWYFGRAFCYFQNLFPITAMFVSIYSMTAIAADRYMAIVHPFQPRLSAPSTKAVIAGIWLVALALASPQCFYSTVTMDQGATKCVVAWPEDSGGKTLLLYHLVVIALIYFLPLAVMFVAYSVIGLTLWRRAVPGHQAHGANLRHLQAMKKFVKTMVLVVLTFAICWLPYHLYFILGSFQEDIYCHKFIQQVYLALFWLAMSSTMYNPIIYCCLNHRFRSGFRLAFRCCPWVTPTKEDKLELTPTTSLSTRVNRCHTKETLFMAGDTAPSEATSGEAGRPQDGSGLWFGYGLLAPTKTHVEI
The format is cell membranes, CHO, Membrane. The following applies: for Ki: read-out: Ki.

Data set [3] can be described thus: DRUGMATRIX: Tumor Necrosis Factor (TNF), Non-Selective radioligand binding (ligand: [125I] TNF-alpha). The format is cell membranes, Membrane. Particulars: u-937; Not Active = under 50% inhibition at 10 µM.
Data set [4] is described as follows: DRUGMATRIX: Glutamate, AMPA radioligand binding (ligand: [3H] AMPA). The format is cell membranes, Rattus norvegicus, Wistar, Cerebral cortex, Membrane. The following applies: Not Active = under 50% inhibition at 10 µM.
Data set [5] can be described thus: DRUGMATRIX: Phorbol Ester radioligand binding (ligand: [3H] PDBu). The format is cell membranes, Mus musculus, ICR, Brain, Membrane. The following applies: Not Active = under 50% inhibition at 10 µM.
A further data set deals with T2, Cytochrome P450 2A6 (Homo sapiens, UniProt P11509).
T2 sequence (P11509 whole entry): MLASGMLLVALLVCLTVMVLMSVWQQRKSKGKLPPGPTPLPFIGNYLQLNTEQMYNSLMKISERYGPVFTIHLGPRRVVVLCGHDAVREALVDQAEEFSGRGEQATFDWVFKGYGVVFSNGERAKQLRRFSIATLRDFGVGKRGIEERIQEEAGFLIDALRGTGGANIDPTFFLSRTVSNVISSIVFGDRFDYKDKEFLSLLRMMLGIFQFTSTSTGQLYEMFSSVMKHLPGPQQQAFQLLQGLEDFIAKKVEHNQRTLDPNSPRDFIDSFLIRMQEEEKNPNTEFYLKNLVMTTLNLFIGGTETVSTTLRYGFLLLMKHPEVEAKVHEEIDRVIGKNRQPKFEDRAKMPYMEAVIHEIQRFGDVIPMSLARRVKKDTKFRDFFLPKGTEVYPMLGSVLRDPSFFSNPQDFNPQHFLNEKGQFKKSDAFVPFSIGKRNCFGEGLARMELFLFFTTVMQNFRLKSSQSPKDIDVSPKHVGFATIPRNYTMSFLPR
The following applies: bti-tn-5b1-4.

What is called IC50 is the midpoint of a concentration-inhibition curve. By Ki is commonly meant the dissociation constant of the complex between target and ligand, obtained from inhibition or displacement.

Chain of Sigma non-opioid intracellular receptor 1 (Q99720 whole entry): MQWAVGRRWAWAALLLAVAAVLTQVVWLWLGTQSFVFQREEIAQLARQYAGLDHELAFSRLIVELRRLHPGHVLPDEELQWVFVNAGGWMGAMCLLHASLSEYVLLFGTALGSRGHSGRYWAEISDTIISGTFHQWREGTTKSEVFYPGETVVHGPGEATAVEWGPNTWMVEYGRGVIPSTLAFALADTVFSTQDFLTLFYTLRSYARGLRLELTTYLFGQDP

Take `CC(C)(C)NC(=O)[C@@H]1C[C@@H]2CCCC[C@@H]2CN1C[C@@H](O)[C@H](Cc1ccccc1)NC(=O)[C@H](CC(N)=O)NC(=O)c1ccc2ccccc2n1`: the half-inhibitory concentration (IC50) result was “Not Active” in data set [1]; “Not Active” in data set [2] (jurkat); 6.21 µM at Substance-K receptor (read-out: IC50); “Not Active” in data set [3]; “Not Active” in data set [4]; “Not Active” in data set [5]. Further, on Cytochrome P450 2A6, the IC50 entry is listed as “Not Active”. For the same compound, the inhibitory constant (Ki) result in data set [1] is “Not Active”; at Substance-K receptor, 2070 nM; in data set [3], “Not Active”; in data set [4], “Not Active”; in data set [5], “Not Active”; on Cytochrome P450 2A6, “Not Active”.

As to `CC1(C)O[C@@H]2C[C@H]3[C@@H]4CCC5=CC(=O)C=C[C@]5(C)[C@@]4(F)[C@@H](O)C[C@]3(C)[C@]2(C(=O)CO)O1` [TRIAMCINOLONE ACETONIDE], the IC50 result (in data set [1]; in data set [2] (jurkat); against Substance-K receptor (cho); in data set [3]; in data set [4]; in data set [5]) was “Not Active” in each case. In addition, the 50% inhibitory concentration (IC50) entry on Cytochrome P450 2A6 is on record as “Not Active”. For the same compound, the inhibition constant (Ki) entry (in data set [1]; in data set [3]; in data set [4]; in data set [5]; at Cytochrome P450 2A6) was “Not Active” in each case.

Consider `Cc1cccc(N(C)C(=S)Oc2ccc3ccccc3c2)c1` [TOLNAFTATE], for which the IC50 entry (in data set [1]; in data set [2] (jurkat); at Substance-K receptor (cho); in data set [3]; in data set [4]; in data set [5]) was “Not Active” throughout. For the same compound, on Cytochrome P450 2A6, the IC50 result was “Not Active”. Besides, the inhibition constant (Ki) result (in data set [1]; in data set [3]; in data set [4]; in data set [5]; at Cytochrome P450 2A6) was “Not Active” each time.

As to `C[C@@H]1CN(c2c(F)c(N)c3c(=O)c(C(=O)O)cn(C4CC4)c3c2F)C[C@H](C)N1` [SPARFLOXACIN], the IC50 entry (in data set [1]; in data set [2] (jurkat); against Substance-K receptor (cho); in data set [3]; in data set [4]; in data set [5]) was “Not Active” each time. Further, the IC50 result at Cytochrome P450 2A6 is “Not Active”. Further, the Ki result (in data set [1]; in data set [3]; in data set [4]; in data set [5]; on Cytochrome P450 2A6) was “Not Active” each time.

For `Cn1ccnc1S` [METHIMAZOLE], the 50% inhibitory concentration (IC50) result (in data set [1]; in data set [2] (jurkat); against Substance-K receptor (cho); in data set [3]; in data set [4]; in data set [5]) was “Not Active” in each case. Besides, the IC50 result against Cytochrome P450 2A6 is listed as “Not Active”. For the same compound, the inhibitory constant (Ki) entry (in data set [1]; in data set [3]; in data set [4]; in data set [5]; at Cytochrome P450 2A6) was “Not Active” in each case.

On to `CN1CCN(CCCN2c3ccccc3Sc3ccc(Cl)cc32)CC1` [PROCHLORPERAZINE], for which the half-maximal inhibitory concentration (IC50) in data set [2] (read-out: IC50) is 54 nM; at Substance-K receptor (cho) it was “Not Active”; against Cytochrome P450 2A6, “Not Active”. Besides, the figures for the inhibitory constant (Ki) (in data set [2]; at Cytochrome P450 2A6) were 23 nM and “Not Active”, respectively.

`C=CCC1(C(C)CCC)C(=O)NC(=O)NC1=O` (centres undefined) [SECOBARBITAL]: the IC50 entry (in data set [1]; in data set [2] (jurkat); at Substance-K receptor (cho); in data set [3]; in data set [4]; in data set [5]) was “Not Active” each time. The half-inhibitory concentration (IC50) result on Cytochrome P450 2A6 was “Not Active”. In addition, the inhibitory constant (Ki) entry (in data set [1]; in data set [3]; in data set [4]; in data set [5]; on Cytochrome P450 2A6) was “Not Active” in each case.

For the compound `N[C@@H](Cc1ccc(N(CCCl)CCCl)cc1)C(=O)O`, the IC50 result (in data set [1]; in data set [2] (jurkat); against Substance-K receptor (cho); in data set [3]; in data set [4]; in data set [5]) was “Not Active” in each case. Besides, the IC50 entry against Cytochrome P450 2A6 is given as “Not Active”. The Ki entry (in data set [1]; in data set [3]; in data set [4]; in data set [5]; at Cytochrome P450 2A6) was “Not Active” each time.

In the case of `Nc1nc2ccc(OC(F)(F)F)cc2s1` [RILUZOLE], the IC50 entry (in data set [1]; in data set [2] (jurkat); on Substance-K receptor (cho); in data set [3]; in data set [4]; in data set [5]) was “Not Active” each time. Also, the inhibition constant (Ki) entry in data set [1], in data set [3], in data set [4] and in data set [5] was “Not Active” in each case.

With `N[C@@H]1[C@H]2CN(c3nc4c(cc3F)c(=O)c(C(=O)O)cn4-c3ccc(F)cc3F)C[C@@H]12` [TROVAFLOXACIN], the IC50 entry (in data set [1]; in data set [2] (jurkat); at Substance-K receptor (cho); in data set [3]; in data set [4]; in data set [5]) was “Not Active” in each case. The IC50 result on Cytochrome P450 2A6 is on record as “Not Active”. The inhibition constant (Ki) entry (in data set [1]; in data set [3]; in data set [4]; in data set [5]; at Cytochrome P450 2A6) was “Not Active” throughout.

`COc1c(C)c2c(c(O)c1C/C=C(\C)CCC(=O)O)C(=O)OC2` [MYCOPHENOLIC ACID]: the IC50 entry (in data set [1]; in data set [2] (jurkat); against Substance-K receptor (cho); in data set [3]; in data set [4]; in data set [5]) was “Not Active” in each case. In addition, on Cytochrome P450 2A6, the 50% inhibitory concentration (IC50) entry was “Not Active”. For the same compound, the inhibition constant Ki result (in data set [1]; in data set [3]; in data set [4]; in data set [5]; at Cytochrome P450 2A6) was “Not Active” each time.

Take `CCCOc1ccccc1-c1nc2nn[nH]c2c(=O)[nH]1` [ZAPRINAST]: the IC50 entry (in data set [1]; in data set [2] (jurkat); against Substance-K receptor (cho); in data set [3]; in data set [4]; in data set [5]) was “Not Active” each time. Moreover, on Cytochrome P450 2A6, the concentration for half-maximal inhibition (IC50) entry was “Not Active”. In addition, the Ki entry (in data set [1]; in data set [3]; in data set [4]; in data set [5]; on Cytochrome P450 2A6) was “Not Active” throughout.

With `Nc1nc2nc[nH]c2c(=S)[nH]1` [THIOGUANINE], the 50% inhibitory concentration (IC50) entry (in data set [1]; in data set [2] (jurkat); at Substance-K receptor (cho); in data set [3]; in data set [4]; in data set [5]) was “Not Active” each time. Also, the IC50 result against Cytochrome P450 2A6 is reported as “Not Active”. In addition, the inhibitory constant (Ki) entry (in data set [1]; in data set [3]; in data set [4]; in data set [5]; at Cytochrome P450 2A6) was “Not Active” in each case.

For the compound `Cc1nc2n(c(=O)c1CCN1CCC(c3noc4cc(F)ccc34)CC1)CCCC2` [RISPERIDONE], the concentration for half-maximal inhibition (IC50) entry against Substance-K receptor (cho) is given as “Not Active”. For the same compound, on Cytochrome P450 2A6, the IC50 result was “Not Active” and the Ki entry is recorded as “Not Active”.

Take `N[C@@H](Cc1cc(I)c(Oc2ccc(O)c(I)c2)c(I)c1)C(=O)O` [LIOTHYRONINE]: the IC50 entry (in data set [2] (jurkat); on Substance-K receptor (cho); against Cytochrome P450 2A6) was “Not Active” each time. The Ki result on Cytochrome P450 2A6 is listed as “Not Active”.

Turning to `CCCCc1oc2ccccc2c1C(=O)c1cc(I)c(OCCN(CC)CC)c(I)c1` [AMIODARONE], the IC50 at Substance-K receptor (read-out: IC50) is 19.3 µM; against Cytochrome P450 2A6 it was “Not Active”. The Ki on Substance-K receptor is 6440 nM; at Cytochrome P450 2A6 it was “Not Active”.

Regarding `CC(C)N1CCN(c2ccc(OCC3COC(Cn4cncn4)(c4ccc(Cl)cc4Cl)O3)cc2)CC1` (centres undefined) [TERCONAZOLE], the half-inhibitory concentration (IC50) result in data set [1] was “Not Active”; in data set [2] (read-out: IC50) it was 508 nM; against Substance-K receptor (cho), “Not Active”; in data set [4] it was “Not Active”; in data set [5] it was “Not Active”; against Cytochrome P450 2A6, “Not Active”. For the same compound, the Ki result was “Not Active” in data set [1]; 214 nM in data set [2]; “Not Active” in data set [4]; “Not Active” in data set [5]; “Not Active” at Cytochrome P450 2A6.

For the compound `CC/C(=C(\c1ccccc1)c1ccc(OCCN(C)C)cc1)c1ccccc1` [TAMOXIFEN], the IC50 on Substance-K receptor (read-out: IC50) was 3.67 µM; against Cytochrome P450 2A6, “Not Active”. Also, the Ki is 1220 nM on Substance-K receptor and “Not Active” at Cytochrome P450 2A6.
